Assay results published in patent US9610291B2, “Treatment of respiratory depression” (NUMEDICUS LIMITED, priority 2012, dated 2017).

What was measured:
conscious rats = assay: Opiate-induced respiratory depression; whole-body plethysmography in conscious rats; assay type: in vivo; conditions: for increase in the respiratory activity: before morphine
Procedure: Whole-body plethysmography is used to assess respiratory rate (fR, in breaths per minute) and tidal volume (VT, in microliters per gram) in conscious rats. Animals are placed in a recording chamber (˜700 ml) flushed continuously with a humidified mixture of 79% nitrogen and 21% oxygen (temperature 22-24° C.). Level of carbon dioxide (CO2) in the chamber is monitored online using a fast-response CO2 analyser. Animals are allowed ˜40 min to acclimatize to the chamber environment at normoxia-normocapnia (21% oxygen, 79% nitrogen and <0.3% CO2) before measurements of baseline ventilation are taken.
Respiratory depression is induced in conscious rats by intramuscular (10 mg/kg) administration of morphine.
Data are acquired using Power1401 interface, saved and analyzed off-line using Spike2 software (CED Limited, Cambridge, UK).
Parameters measured included fR—respiratory rate (in breaths per minute); VT—tidal volume (in microliters per gram of body weight); VE—minute ventilation fR×VT (in microliters per gram of body weight per minute).
The data were analysed by ANOVA followed by the Tukey-Kramer's post hoc test, Student's t-test, or non-parametric Wilcoxon-Mann-Whitney U test, as appropriate. Data are presented as means±SEM.

[1] = test system: Methyl-CpG-binding protein 2 (Mecp) null mice; assay: Rett's syndrome model; plethysmography in Mecp2 null mice; assay type: in vivo; conditions: tianeptine 10 mg/kg i.p. in saline, 5.6 Hz before treatment, p=0.037, paired t test
Procedure: Methyl-CpG-binding protein 2 (Mecp) null mice were of the B6.129P2(C)-Mecp2^tm1.1Bird strain. Mice were produced and genotyped using published methods (Miralvès J, Magdeleine E, Joly E. Design of an improved set of oligonucleotide primers for genotyping MeCP2^tm1.1Bird KO mice by PCR. Mol Neurodegener. 2007; 2:16; Bissonnette J M, Knopp S J. Separate respiratory phenotypes in methyl-CpG-binding protein 2 (Mecp2) deficient mice. Pediatr Res. 2006; 59:513-518).
Breathing was recorded over a 60 min control period following drug treatment in the same way as for the respiratory depression experiments, with the same equipment and software. After the recording sessions, mice were euthanized with CO2.

CN1c2ccccc2C(NCCCCCCC(=O)O)c2ccc(Cl)cc2S1(=O)=O (centres unmarked) [tianeptine, 7-[(3-chloro-6,11-dihydro-6-methyl-dibenzo[c,f][1,2]thiazepin-11-yl)amino]heptanoic acid S,S-dioxide]
increase in the respiratory activity (conscious rats; tianeptine 2 mg/kg ip, 5 min after administration, conscious rats, p<0.05): ~30%
morphine-induced respiratory depression (conscious rats; tianeptine 2 mg/kg ip, morphine 10 mg/kg intramuscular 5 minutes after tianeptine, conscious rats): appears to prevent morphine-induced respiratory depression
increase in the respiratory activity (conscious rats; tianeptine 10 mg/kg, rats): not observed
morphine-induced respiratory depression (conscious rats; tianeptine 10 mg/kg, followed by morphine 10 mg/kg intramuscular, rats): prevented
peak dominant frequency (respiratory frequency pattern) after drug treatment [1]: 4.8 Hz
